From US20250002470A1, “NITROGEN-CONTAINING COMPOUND, PREPARATION METHOD THEREFOR AND APPLICATION THEREOF” (ZHEJIANG AIXPLORER BIOTECH CO., LTD., priority 2021, published 2025)

Experiments:
[1] = biological target: hERG potassium channel (Homo sapiens, UniProt Q12809); experiment: Whole-cell patch-clamp (QPatch) of hERG current in HEK293 cells stably expressing hERG; assay type: cell-based
Procedure: In this study, a whole-cell patch-clamp technique was used to study the inhibitory effect of compounds on hERG potassium channels and to evaluate the risk of ventricular repolarization toxicity.
The HEK293 cell line stably expressing the hERG potassium channel cells was purchased from Creacell, Inc. (Cat. No. A-0320).
The HEK293 cell line that can stably express the hERG potassium channel, was cultured in DMEM medium containing 10% fetal bovine serum and 0.8 mg/mL G418 at 37° C. and 5% carbon dioxide.
Before the test, the cells were separated with TrypLET Express, centrifuged after adding medium to terminate digestion, resuspended the cell count, adjusted the cell density to 2-3×10^6 cells/mL, and then lightly mixed the cells on a room temperature equilibration shaker for 15-20 min.
Electrophysiological assays were performed using a fully automated patch-clamp QPatch 48 X (Sophion) device. The prepared cells were placed on a centrifuge on the Qpatch bench, the cells were washed using multiple centrifugation/suspension methods, and the cell culture medium was replaced with extracellular fluid. Remove an MTP-96 plate and place it in the location of the MTP source. Remove the QPlate chip and subsequently place the QPlate at the Qplate source location. The robotic arm scans the MTP-96 board and the QPlate chip barcode and grabs it to the measuring station. Draw the intracellular and external fluid from the liquid pool and add them to the intracellular fluid pool, cell and test cell pool of the QPlate chip, respectively. At the measuring station, all measuring sites on the QPlate undergo initial quality control. The quality control process includes aspirating the cell suspension from the cell vessel of the centrifuge and positioning the cells to the chip wells via a pressure controller to establish a high-resistance seal and create a whole-cell recording pattern.
The voltage stimulation protocol for whole-cell patch-clamp recording of whole-cell hERG potassium currents is as follows: the cell membrane voltage clamps at −80 mV when a whole-cell closure is formed. The clamping voltage is depolarized from −80 mV to −50 mV for 0.5 s (as a leakage current detection), then steps to 30 mV for 2.5 s, and then quickly recovers to −50 mV for 4 s to excite the tail current of the hERG channel. The data were collected repeatedly every 10 s to observe the effect of the drug on the hERG tail current. −50 mV stimulation at 0.5 s was used as the leakage current detection. The test data is collected by Qpatch and stored in the connected service station.
First, the current after the effect of each drug concentration and the blank control current are normalized 0, and then the inhibition rate corresponding to each drug concentration is calculated.
Calculate the mean and standard error for each concentration and calculate the semi-inhibitory concentration for each compound using the following Formula:
Y=Bottom+(Top−Bottom)/(1+10^((LogIC50−X)*HillSlope)) The above Formula was used to fit the dose-dependent effect nonlinearly, where C represents the test substance concentration, IC50 is the semi-inhibitory concentration, and h represents the Hill coefficient. Curve fitting and IC50 calculations were performed using Graphpad software.

[2] = In vivo pharmacokinetic evaluation in mice (IV and PO); conditions: CD-1 mice; for AUC / clearance / half-life / Vd / Cmax: mouse, plasma; for Vd: read-out: Vss
Procedure: CD-1 mice, after fasting overnight (free drinking), are divided into tail vein (IV) and gavage administration (PO) groups. The tail vein administration group collected 0.1 mL of blood from the orbital venous plexus before administration and 5 minutes, 15 minutes, 0.5 hours, 1 hour, 2 hours, 4 hours, 8 hours, 12 hours, and 24 hours after administration, and sample centrifugation at 4° C. for 5 minutes, and stored at −70° C. for testing. […] The plasma parent drug concentration was determined by LC-MS/MS.

[3] = biological target: T1, NLRP3 (Homo sapiens, UniProt Q96P20); experiment: IL-1β (interleukin-1β) secretion in IFN-γ-differentiated, LPS/ATP-stimulated THP-1 cells (half inhibition rate of NLRP3); assay type: cell-based; conditions: IFN-γ 25 ng/mL, LPS 50 ng/mL, ATP 5 mM
T1 construct: endogenous in cells; host or cells: THP-1 cells (IFN-γ differentiated, LPS primed, ATP stimulated)
Procedure: Remove THP-1 cells from liquid nitrogen and place in a 37° C. water bath until ice melt. Add the cells to 5 mL of warm cell culture medium and centrifuge at 1,000 rpm for 5 min. Discard the supernatant and resuspend and culture in a new cell culture medium.
THP-1 cells are cultured in the culture medium and passaged every 2-3 days.
2.1.1 Add 100 μL of cell suspension per well to the cell plate and incubate the cell plate in a 37° C., 5% CO2 incubator for 24 hours.
2.2.1 Discard the supernatant of IFN-γ differentiation after differentiation treatment. Add 100 μL of serum-free medium containing LPS (final concentration of 50 ng/mL) to the cell plate. The cell plates were incubated in a 37° C., 5% CO2 incubator for 4 h.
Place the cell plate in an incubator at 37° C. and 5% CO2 for 1 hour.
2.2.3 Add 20 μL of 6×ATP per well according to the plate map (final concentration 5 mM) and incubate the cell plate in a 37° C., 5% CO2 incubator for 1 h. Collect the supernatant (60 μL) and store at −20° C.
The capture antibody mAb Mt175 is diluted to 2 μg/mL with PBS (1:250) and added to the cell plate at 15 μL per well. Keep the plate overnight at 4° C.
2.4.1 Discard the coated antibody and wash 4 times with PBST.
2.4.3 Discard the blocking buffer and wash 4 times with PBST.
2.4.4 Add 25 μL of 2.2.3 collected supernatant sample per well and incubate for 2 h at room temperature.
2.4.5 Discard the samples and wash 4 times with PBST.
2.4.6 Add mAb7P10-biotin (concentration 0.5 ug/mL) to blocking buffer, add 15 μL per well to the cell plate, and incubate for 1 hour at room temperature.
2.4.7 Discard the antibody and wash 4 times with PBST.
2.4.8 Streptavidin-HRP was diluted 1:1000 in blocking buffer, 15 μL per well was added to the cell plate, and incubated for 1 hour at room temperature.
2.4.9 Discard streptavidin-HRP and wash 4 times with PBST.
2.4.10 Add 25 μL of HRP substrate (Surmodics-TMBW-0100-01) per well and incubate the cell plate until a blue product appears.
2.4.11 Add 25 μL of stop solution (Surmodics-LSTP-0100-01) per well, and the blue product turns yellow.
2.4.12 Read the cell plate at 450 nm with a microplate reader.

Chain of hERG potassium channel (Q12809 whole entry): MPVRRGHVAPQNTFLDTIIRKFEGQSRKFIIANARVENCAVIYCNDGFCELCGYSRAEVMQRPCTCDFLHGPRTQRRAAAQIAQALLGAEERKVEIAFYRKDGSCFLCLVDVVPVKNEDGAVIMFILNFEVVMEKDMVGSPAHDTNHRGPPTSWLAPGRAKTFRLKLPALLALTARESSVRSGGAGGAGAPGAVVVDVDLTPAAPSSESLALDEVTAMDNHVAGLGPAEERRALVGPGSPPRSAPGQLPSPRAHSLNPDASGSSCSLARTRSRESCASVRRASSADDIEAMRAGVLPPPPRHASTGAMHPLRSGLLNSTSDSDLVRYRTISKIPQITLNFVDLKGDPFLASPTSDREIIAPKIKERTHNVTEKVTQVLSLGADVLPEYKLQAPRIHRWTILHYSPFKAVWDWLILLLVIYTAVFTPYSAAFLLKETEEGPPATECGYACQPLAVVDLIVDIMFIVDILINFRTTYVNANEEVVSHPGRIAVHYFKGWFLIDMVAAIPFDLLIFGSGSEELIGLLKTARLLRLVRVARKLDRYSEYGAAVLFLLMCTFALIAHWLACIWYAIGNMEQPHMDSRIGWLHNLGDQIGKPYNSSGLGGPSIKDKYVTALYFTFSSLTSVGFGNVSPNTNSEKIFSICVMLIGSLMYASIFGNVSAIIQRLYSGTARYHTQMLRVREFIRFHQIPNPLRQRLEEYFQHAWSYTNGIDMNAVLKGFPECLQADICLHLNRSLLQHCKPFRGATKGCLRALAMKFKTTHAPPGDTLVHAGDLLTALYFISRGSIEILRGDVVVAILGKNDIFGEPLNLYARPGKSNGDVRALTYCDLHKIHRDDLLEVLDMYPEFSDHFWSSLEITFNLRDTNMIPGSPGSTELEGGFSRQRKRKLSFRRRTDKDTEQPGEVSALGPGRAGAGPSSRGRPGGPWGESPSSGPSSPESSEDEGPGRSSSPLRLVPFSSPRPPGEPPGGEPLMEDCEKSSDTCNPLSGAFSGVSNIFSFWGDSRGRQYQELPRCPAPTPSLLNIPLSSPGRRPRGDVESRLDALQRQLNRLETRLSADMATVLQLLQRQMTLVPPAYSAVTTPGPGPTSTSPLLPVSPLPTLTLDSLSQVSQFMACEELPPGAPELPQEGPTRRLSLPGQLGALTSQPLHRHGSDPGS
T1 sequence (Q96P20 whole entry): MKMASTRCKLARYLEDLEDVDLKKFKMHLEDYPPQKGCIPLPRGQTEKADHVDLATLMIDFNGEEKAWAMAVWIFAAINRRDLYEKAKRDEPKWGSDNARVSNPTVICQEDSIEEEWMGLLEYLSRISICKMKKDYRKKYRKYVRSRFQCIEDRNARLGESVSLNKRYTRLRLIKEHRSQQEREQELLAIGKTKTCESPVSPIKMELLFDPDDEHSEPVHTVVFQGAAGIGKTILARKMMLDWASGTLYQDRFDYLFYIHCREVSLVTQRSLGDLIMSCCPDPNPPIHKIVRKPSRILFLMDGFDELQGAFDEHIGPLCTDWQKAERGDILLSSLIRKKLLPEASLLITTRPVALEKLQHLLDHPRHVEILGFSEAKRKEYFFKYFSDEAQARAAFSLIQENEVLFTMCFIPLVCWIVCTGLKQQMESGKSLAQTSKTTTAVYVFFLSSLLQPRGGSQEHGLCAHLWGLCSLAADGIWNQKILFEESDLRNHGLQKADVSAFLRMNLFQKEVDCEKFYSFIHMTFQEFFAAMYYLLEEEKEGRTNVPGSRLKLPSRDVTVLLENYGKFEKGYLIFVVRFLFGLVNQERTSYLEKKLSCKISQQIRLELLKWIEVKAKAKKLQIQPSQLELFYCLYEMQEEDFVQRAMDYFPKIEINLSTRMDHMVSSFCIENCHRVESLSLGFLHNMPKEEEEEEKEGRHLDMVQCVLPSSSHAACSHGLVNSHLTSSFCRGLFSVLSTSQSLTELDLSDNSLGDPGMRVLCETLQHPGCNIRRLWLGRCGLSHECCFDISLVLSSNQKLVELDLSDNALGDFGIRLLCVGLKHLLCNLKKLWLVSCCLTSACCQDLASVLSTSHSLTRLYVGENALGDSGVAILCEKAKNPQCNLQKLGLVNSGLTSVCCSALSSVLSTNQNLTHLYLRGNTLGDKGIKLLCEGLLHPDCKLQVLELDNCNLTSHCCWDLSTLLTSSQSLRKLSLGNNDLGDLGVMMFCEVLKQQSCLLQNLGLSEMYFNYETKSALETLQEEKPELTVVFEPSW

| F ([2]; PO, 20 mg/kg) [%] | AUC ([2]; IV, 3 mg/kg) [ng·h/mL] | clearance ([2]; IV, 3 mg/kg) [mL/min/kg] | half-life ([2]; IV, 3 mg/kg) [h] | Vd ([2]; IV, 3 mg/kg) [L/kg] | AUC ([2]; PO, 20 mg/kg) [ng·h/mL] | Cmax ([2]; PO, 20 mg/kg) [ng/mL] | half-life ([2]; PO, 20 mg/kg) [h] | IC50 [3] [nM] | SMILES | IC50 [1] [nM] |
| --- | --- | --- | --- | --- | --- | --- | --- | --- | --- | --- |
| 78.7 | 3290 | 15.2 | 3.28 | 3.39 | 17200 | 5710 | 2.76 | 9 | Cc1nc(N[C@@H]2CCCN([C@@H](C)CO)C2)nnc1-c1ccc(C(F)(F)F)cc1O [Embodiment 147] | > 30000 |
| 95.2 | 4750 | 10.5 | 4.17 | 3 | 30100 | 7730 | 3.68 | 14.4 | Cc1nc(N[C@@H]2CCCN([C@H](C)CO)C2)nnc1-c1ccc(C(F)(F)F)cc1O [Embodiment 148] | > 30000 |
| 93.8 | 3250 | 15.1 | 6.07 | 2.35 | 20300 | 6520 | 5.67 | 4.4 | Oc1cc(C(F)(F)F)ccc1-c1nnc(N[C@@H]2CCCC[C@H]2O)c2cc(F)ccc12 [Embodiment 136] | > 30000 |
| 88.5 | 3160 | 15.8 | 2.81 | 3.56 | 18600 | 3070 | 2.53 | 4.1 | Cc1nc(N[C@@H]2CCCN(C(C)(C)CO)C2)nnc1-c1ccc(C(F)(F)F)cc1O [Embodiment 132] | > 30000 |
|  |  |  |  |  |  |  |  | 6.5 | Cc1nc(N[C@@H]2CCCN(C(C)CO)C2)nnc1-c1ccc(C(F)(F)F)cc1O (stereo partly drawn) [Embodiment 43, 2-(3-(((3R)-1-(1-hydroxypropyl-2-yl)piperidin-3-yl)amino)-5-methyl-1,2,4-triazin-6-yl)-5-(trifluoromethyl)phenol] | > 30000 |
|  |  |  |  |  |  |  |  | 6.6 | Cc1nc(N[C@@H]2CCCN(CC(C)(C)O)C2)nnc1-c1ccc(C(F)(F)F)cc1O [Embodiment 133] | > 30000 |
| 95.3 | 2950 | 16.8 | 4.02 | 4.35 | 18800 | 4530 | 3.62 | 0.4 | Cc1nc(N[C@@H]2CCCN(CCO)C2)nnc1-c1ccc(C(F)(F)F)cc1O [Embodiment 44, (R)-2-(3-((1-(2-hydroxyethyl)piperidin-3-yl)amino)-5-methyl-1,2,4-triazin-6-yl)-5-(trifluoromethyl)phenol] | > 30000 |
|  |  |  |  |  |  |  |  | 3.5 | CC(CO)N1CCC[C@@H](Nc2nnc(-c3ccc(C(F)(F)F)cc3O)c3cnccc23)C1 (some centres unmarked) [Embodiment 127] | > 30000 |
|  |  |  |  |  |  |  |  | 12.4 | Cc1cc(C(F)(F)F)cc(O)c1-c1cnc(N[C@H]2C[C@@](C)(O)C2)nn1 [Embodiment 40, 2-(3-(((cis)-3-hydroxy-3-methylcyclobutyl)amino)-1,2,4-triazin-6-yl)-3-methyl-5-(trifluoromethyl)phenol] | > 30000 |
|  |  |  |  |  |  |  |  | 10.4 | Cc1nc(N[C@@H]2CCCN(CCO)C2)nnc1-c1ccc(Cl)cc1O [Embodiment 152] | > 30000 |
|  |  |  |  |  |  |  |  | 7.3 | CC(CO)N1CCC[C@@H](Nc2nnc(-c3ccc(C(F)(F)F)cc3O)c3occc23)C1 (some centres unmarked) [Embodiment 131] | > 30000 |
